In the NIST ThermoML archive (doi:10.1021/acs.jced.7b00106):
Values joined by “and” are separate entries in the source; they are usually repeats but may differ in a detail not shown here. Equal values may be shown once.

Details: Hot wire method

FC(F)(F)/C=C/Cl [(E)-1-chloro-3,3,3-trifluoroprop-1-ene]
Details | thermal conductivity
383.11 K, 7892 kPa, Liquid | 0.06492 W/m/K
383.11 K, 8377 kPa, Liquid | 0.06527 W/m/K
383.11 K, 20088 kPa, Liquid | 0.07252 W/m/K
383.12 K, 7882 kPa, Liquid | 0.06487 W/m/K
383.12 K, 8374 kPa, Liquid | 0.06525 W/m/K
383.12 K, 20102 kPa, Liquid | 0.07254 W/m/K
383.13 K, 1307 kPa, Liquid | 0.05937 W/m/K
383.13 K, 1311 kPa, Liquid | 0.05937 W/m/K
383.13 K, 35551 kPa, Liquid | 0.08007 W/m/K
383.13 K, 35559 kPa, Liquid | 0.08009 W/m/K
383.17 K, 33010 kPa, Liquid | 0.07893 W/m/K
383.17 K, 33031 kPa, Liquid | 0.07897 W/m/K
383.19 K, 6275 kPa, Liquid | 0.06357 W/m/K
383.2 K, 884 kPa, Fluid (supercritical or subcritical phases) | 0.018 W/m/K
383.2 K, 6276 kPa, Liquid | 0.06372 W/m/K
383.2 K, 16814 kPa, Liquid | 0.07066 W/m/K
383.2 K, 16828 kPa, Liquid | 0.07087 W/m/K
383.21 K, 885 kPa, Fluid (supercritical or subcritical phases) | 0.01804 W/m/K
383.21 K, 1198 kPa, Fluid (supercritical or subcritical phases) | 0.01888 W/m/K
383.23 K, 1197 kPa, Fluid (supercritical or subcritical phases) | 0.01891 W/m/K
383.23 K, 28320 kPa, Liquid | 0.07674 W/m/K
383.24 K, 28314 kPa, Liquid | 0.07674 W/m/K
383.25 K, 13728 kPa, Liquid | 0.06881 W/m/K
383.26 K, 13716 kPa, Liquid | 0.0688 W/m/K
383.3 K, 4299 kPa, Liquid | 0.0621 W/m/K
383.3 K, 4304 kPa, Liquid | 0.06207 W/m/K
383.31 K, 24121 kPa, Liquid | 0.07463 W/m/K
383.31 K, 24128 kPa, Liquid | 0.07464 W/m/K
383.34 K, 10966 kPa, Liquid | 0.06703 W/m/K
383.35 K, 10969 kPa, Liquid | 0.06723 W/m/K
383.36 K, 2610 kPa, Liquid | 0.06058 W/m/K
383.36 K, 2618 kPa, Liquid | 0.06063 W/m/K
383.4 K, 20075 kPa, Liquid | 0.07247 W/m/K
383.4 K, 35533 kPa, Liquid | 0.07987 W/m/K
383.4 K, 35549 kPa, Liquid | 0.08004 W/m/K
383.41 K, 7887 kPa, Liquid | 0.06484 W/m/K
383.41 K, 8373 kPa, Liquid | 0.06523 W/m/K
383.41 K, 20088 kPa, Liquid | 0.07251 W/m/K
383.42 K, 999 kPa, Fluid (supercritical or subcritical phases) | 0.01831 W/m/K
383.42 K, 7894 kPa, Liquid | 0.06491 W/m/K
383.42 K, 8391 kPa, Liquid | 0.06529 W/m/K
383.43 K, 1000 kPa, Fluid (supercritical or subcritical phases) | 0.01834 W/m/K
383.44 K, 1304 kPa, Liquid | 0.05936 W/m/K
383.44 K, 1312 kPa, Liquid | 0.05942 W/m/K
383.44 K, 33007 kPa, Liquid | 0.07889 W/m/K
383.45 K, 33003 kPa, Liquid | 0.0789 W/m/K
383.49 K, 16818 kPa, Liquid | 0.07063 W/m/K
383.49 K, 16831 kPa, Liquid | 0.07066 W/m/K
383.5 K, 6277 kPa, Liquid | 0.06367 W/m/K
383.51 K, 6277 kPa, Liquid | 0.06368 W/m/K
383.51 K, 28297 kPa, Liquid | 0.07667 W/m/K
383.52 K, 28321 kPa, Liquid | 0.07671 W/m/K
383.54 K, 1198 kPa, Fluid (supercritical or subcritical phases) | 0.01908 W/m/K
383.55 K, 1198 kPa, Fluid (supercritical or subcritical phases) | 0.01907 W/m/K
383.55 K, 13721 kPa, Liquid | 0.06876 W/m/K
383.56 K, 13735 kPa, Liquid | 0.06881 W/m/K
383.6 K, 24101 kPa, Liquid | 0.07457 W/m/K
383.6 K, 24124 kPa, Liquid | 0.0746 W/m/K
383.61 K, 4288 kPa, Liquid | 0.06216 W/m/K
383.62 K, 4293 kPa, Liquid | 0.06209 W/m/K
383.65 K, 10955 kPa, Liquid | 0.067 W/m/K
383.65 K, 10973 kPa, Liquid | 0.06702 W/m/K
383.68 K, 2612 kPa, Liquid | 0.0606 W/m/K
383.68 K, 2620 kPa, Liquid | 0.06068 W/m/K
383.73 K, 8375 kPa, Liquid | 0.06521 W/m/K
383.73 K, 8381 kPa, Liquid | 0.06538 W/m/K
383.78 K, 999 kPa, Fluid (supercritical or subcritical phases) | 0.01848 W/m/K
401.38 K, 1794 kPa, Fluid (supercritical or subcritical phases) | 0.02085 W/m/K
401.39 K, 1794 kPa, Fluid (supercritical or subcritical phases) | 0.02077 W/m/K
401.48 K, 1714 kPa, Fluid (supercritical or subcritical phases) | 0.0205 W/m/K
401.48 K, 1716 kPa, Fluid (supercritical or subcritical phases) | 0.02045 W/m/K
401.53 K, 1623 kPa, Fluid (supercritical or subcritical phases) | 0.02023 W/m/K
401.56 K, 1795 kPa, Fluid (supercritical or subcritical phases) | 0.02087 W/m/K
401.57 K, 1795 kPa, Fluid (supercritical or subcritical phases) | 0.02094 W/m/K
401.58 K, 1514 kPa, Fluid (supercritical or subcritical phases) | 0.01985 W/m/K
401.58 K, 1515 kPa, Fluid (supercritical or subcritical phases) | 0.01989 W/m/K
401.61 K, 1407 kPa, Fluid (supercritical or subcritical phases) | 0.01962 W/m/K
401.62 K, 1407 kPa, Fluid (supercritical or subcritical phases) | 0.01968 W/m/K
401.65 K, 1306 kPa, Fluid (supercritical or subcritical phases) | 0.01952 W/m/K
401.65 K, 1307 kPa, Fluid (supercritical or subcritical phases) | 0.01951 W/m/K
401.67 K, 1716 kPa, Fluid (supercritical or subcritical phases) | 0.02063 W/m/K
401.69 K, 1203 kPa, Fluid (supercritical or subcritical phases) | 0.01937 W/m/K and 0.01933 W/m/K
401.71 K, 1106 kPa, Fluid (supercritical or subcritical phases) | 0.01926 W/m/K
401.72 K, 1106 kPa, Fluid (supercritical or subcritical phases) | 0.01925 W/m/K
401.72 K, 1623 kPa, Fluid (supercritical or subcritical phases) | 0.0203 W/m/K
401.73 K, 1623 kPa, Fluid (supercritical or subcritical phases) | 0.02026 W/m/K
401.75 K, 847 kPa, Fluid (supercritical or subcritical phases) | 0.01914 W/m/K
401.75 K, 1000 kPa, Fluid (supercritical or subcritical phases) | 0.01916 W/m/K
401.75 K, 1001 kPa, Fluid (supercritical or subcritical phases) | 0.01919 W/m/K
401.76 K, 846 kPa, Fluid (supercritical or subcritical phases) | 0.01915 W/m/K
401.76 K, 1795 kPa, Fluid (supercritical or subcritical phases) | 0.02102 W/m/K
401.76 K, 1796 kPa, Fluid (supercritical or subcritical phases) | 0.02099 W/m/K
401.78 K, 1514 kPa, Fluid (supercritical or subcritical phases) | 0.0199 W/m/K
401.79 K, 1515 kPa, Fluid (supercritical or subcritical phases) | 0.01993 W/m/K
401.82 K, 1408 kPa, Fluid (supercritical or subcritical phases) | 0.01967 W/m/K
401.83 K, 1407 kPa, Fluid (supercritical or subcritical phases) | 0.01973 W/m/K
401.84 K, 675 kPa, Fluid (supercritical or subcritical phases) | 0.01911 W/m/K
401.86 K, 1307 kPa, Fluid (supercritical or subcritical phases) | 0.01952 W/m/K
401.87 K, 1716 kPa, Fluid (supercritical or subcritical phases) | 0.02077 W/m/K
401.88 K, 1715 kPa, Fluid (supercritical or subcritical phases) | 0.02074 W/m/K
401.91 K, 1202 kPa, Fluid (supercritical or subcritical phases) | 0.01943 W/m/K
401.91 K, 1203 kPa, Fluid (supercritical or subcritical phases) | 0.01941 W/m/K
401.93 K, 1622 kPa, Fluid (supercritical or subcritical phases) | 0.02034 W/m/K
401.94 K, 1105 kPa, Fluid (supercritical or subcritical phases) | 0.01929 W/m/K
401.94 K, 1106 kPa, Fluid (supercritical or subcritical phases) | 0.01933 W/m/K
401.94 K, 1624 kPa, Fluid (supercritical or subcritical phases) | 0.02037 W/m/K
401.96 K, 1796 kPa, Fluid (supercritical or subcritical phases) | 0.02117 W/m/K
401.97 K, 1000 kPa, Fluid (supercritical or subcritical phases) | 0.01921 W/m/K
401.97 K, 1001 kPa, Fluid (supercritical or subcritical phases) | 0.01922 W/m/K
401.97 K, 1796 kPa, Fluid (supercritical or subcritical phases) | 0.02115 W/m/K
401.99 K, 847 kPa, Fluid (supercritical or subcritical phases) | 0.01917 W/m/K
402 K, 845 kPa, Fluid (supercritical or subcritical phases) | 0.01916 W/m/K
402 K, 1514 kPa, Fluid (supercritical or subcritical phases) | 0.01998 W/m/K and 0.02002 W/m/K
402.04 K, 1407 kPa, Fluid (supercritical or subcritical phases) | 0.01972 W/m/K
402.04 K, 1408 kPa, Fluid (supercritical or subcritical phases) | 0.01978 W/m/K
402.07 K, 1716 kPa, Fluid (supercritical or subcritical phases) | 0.02086 W/m/K and 0.02091 W/m/K
402.09 K, 674 kPa, Fluid (supercritical or subcritical phases) | 0.0192 W/m/K
402.09 K, 1306 kPa, Fluid (supercritical or subcritical phases) | 0.01958 W/m/K
402.09 K, 1307 kPa, Fluid (supercritical or subcritical phases) | 0.01963 W/m/K
402.12 K, 33574 kPa, Liquid | 0.0762 W/m/K
402.13 K, 1203 kPa, Fluid (supercritical or subcritical phases) | 0.01947 W/m/K
402.14 K, 1203 kPa, Fluid (supercritical or subcritical phases) | 0.01946 W/m/K
402.15 K, 1623 kPa, Fluid (supercritical or subcritical phases) | 0.02048 W/m/K
402.17 K, 1105 kPa, Fluid (supercritical or subcritical phases) | 0.01933 W/m/K and 0.01934 W/m/K
402.19 K, 1796 kPa, Fluid (supercritical or subcritical phases) | 0.02136 W/m/K and 0.02138 W/m/K
402.2 K, 24990 kPa, Liquid | 0.07177 W/m/K
402.2 K, 25009 kPa, Liquid | 0.07171 W/m/K
402.21 K, 1000 kPa, Fluid (supercritical or subcritical phases) | 0.01925 W/m/K
402.22 K, 1851 kPa, Liquid | 0.05439 W/m/K
402.22 K, 1852 kPa, Liquid | 0.05442 W/m/K
402.23 K, 846 kPa, Fluid (supercritical or subcritical phases) | 0.01918 W/m/K
402.23 K, 1515 kPa, Fluid (supercritical or subcritical phases) | 0.02013 W/m/K and 0.02014 W/m/K
402.24 K, 847 kPa, Fluid (supercritical or subcritical phases) | 0.01925 W/m/K
402.25 K, 13371 kPa, Liquid | 0.06482 W/m/K
402.26 K, 13368 kPa, Liquid | 0.06479 W/m/K
402.27 K, 1408 kPa, Fluid (supercritical or subcritical phases) | 0.01984 W/m/K and 0.01988 W/m/K
402.29 K, 21647 kPa, Liquid | 0.06986 W/m/K
402.29 K, 21648 kPa, Liquid | 0.06987 W/m/K
402.31 K, 1715 kPa, Fluid (supercritical or subcritical phases) | 0.02112 W/m/K and 0.02105 W/m/K
402.31 K, 28736 kPa, Liquid | 0.07366 W/m/K
402.31 K, 28755 kPa, Liquid | 0.0737 W/m/K
402.32 K, 5982 kPa, Liquid | 0.0589 W/m/K and 0.05892 W/m/K
402.32 K, 11080 kPa, Liquid | 0.06308 W/m/K
402.32 K, 11097 kPa, Liquid | 0.06313 W/m/K
402.33 K, 1306 kPa, Fluid (supercritical or subcritical phases) | 0.01962 W/m/K and 0.01976 W/m/K
